# Measurements taken from US8084440B2, “Method for improving the fertility of animals” (Desol B.V., priority 2005, dated 2011).
# Legend:
# animals = test: Feed supplementation for improving the fertility of animals (titration of the substance into the feed); format: in vivo
# Excerpt: It was found in our studies that phytohormones and beta-glucans appeared to work in a wide range of concentrations for improving the fertility of animals. The optimal concentrations may vary between different species, however, the skilled person will know how to obtain an optimal concentration for a given species, for instance by titration of the desired compound into the animal feed and testing when this would have the optimal effect. The following may serve as guidance in this process. A skilled person will appreciate that the amount of free IAA in the ready to use feed has to be adjusted in order to supply the animal with an effective amount of free IAA. In order to adjust the free IAA concentration in the feed so that a certain daily intake of free IAA is achieved, an estimate has to be made of the feed intake of an animal or animal group. A skilled person is aware of the feed intake of a particular (kind or group of) animal(s). Typically, the feed intake per day is between 0.5 and 10% of the body weight of the animal, with occasional exceptions as high as 20%. Elderly animals tend to eat less and are considered to have a feed intake per day between 0.1 and 5%, typically of 1% of their body mass. […] A particularly good source of such 1,3 and 1,6 beta glucans may be found in preparations of Agaricus blazei murill (ABM) or yeast cell walls. […] This corresponds to approximately 0.1 to 100 mg/kglw/day of 1,3 and 1,6 beta glucans. […] The effect of improving the fertility of animals was also observed when the feed of animals was supplemented with Gibberelin or Gibberellic acid.
# humans = details: single doses of 0.1 g/kg body weight; cited from earlier work
compound,measurement,setting,value
"1,3 and 1,6 beta glucans",fertility of animals,animals; fed with 1 to 10 mg/kglw/day,Excellent results
"O=C(O)Cc1c[nH]c2ccccc12 [free IAA, indole-3-acetic acid]",toxicity of single doses,humans,non-toxic
same,fertility of animals,animals; feed supplemented with free IAA instead of conjugated IAA,Particularly good results
same,fertility of animals,animals; feeding with 0.4 mg/kglw/day,very effective
same,fertility of animals,animals; provided in feed in the range of 0.004 and 40 mg/kglw/day,improved
C=C1C[C@]23C[C@@]1(O)CC[C@H]2[C@@]12C=C[C@H](O)[C@@](C)(C(=O)O1)[C@H]2[C@@H]3C(=O)O [Gibberellic acid],fertility of animals,"animals; between 0.01 and 0.1 mg/kglw/day, such as 0.04 mg/kglw/day",Optimal results
same,fertility of animals,animals; range of 0.004 and 0.4 mg/kglw/day,particularly pronounced
